Results reported in article PMC5439065, “Effect of Naringenin, Quercetin, and Sesamin on Xenobiotica-Metabolizing CYP1A and CYP3A in Mice Offspring after Maternal Exposure to Persistent Organic Pollutants” (BioMed Research International, 2017).

Experiments:
CYP3A (CYP3A11) = target: T1, CYP3A (CYP3A11) (Mus musculus, UniProt Q64459); test: in vitro; settings: CD-1, mouse, microsomes; for IC50 at 7 min: pH 7.4, IC50, CYP3A (BROD), 2 μM 7-benzyloxyresorufin
T1 sequence (Q64459 1-504): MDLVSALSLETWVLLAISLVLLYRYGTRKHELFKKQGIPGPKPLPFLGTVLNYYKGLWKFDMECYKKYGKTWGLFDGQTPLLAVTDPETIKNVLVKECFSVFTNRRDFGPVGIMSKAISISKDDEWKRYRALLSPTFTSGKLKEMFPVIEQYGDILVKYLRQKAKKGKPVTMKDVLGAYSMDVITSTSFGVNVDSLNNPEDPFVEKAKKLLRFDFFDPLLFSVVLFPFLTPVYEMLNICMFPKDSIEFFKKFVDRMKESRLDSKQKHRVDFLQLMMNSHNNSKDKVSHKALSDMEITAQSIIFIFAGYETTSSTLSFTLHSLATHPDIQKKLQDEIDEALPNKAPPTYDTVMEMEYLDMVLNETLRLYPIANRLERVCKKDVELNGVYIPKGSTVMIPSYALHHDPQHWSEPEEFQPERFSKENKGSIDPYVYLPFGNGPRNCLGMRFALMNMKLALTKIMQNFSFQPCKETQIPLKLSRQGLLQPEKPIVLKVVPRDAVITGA
Protocol: (§1) Liver samples were taken immediately after necropsy, frozen in ethanol and dry ice, and stored at −80°C until use. The microsomal fractions were prepared using a calcium aggregation method. Microsomal protein concentration was determined with a commercially available kit (Bio-Rad laboratories Inc., Hercules, CA, USA) according to the manufacturer's instructions.
(§2) In mice, O-dealkylation of 7-ethoxyresorufin is catalyzed by CYP1A1 and CYP1A2 [15], and O-dealkylation of 7-benzyloxyresorufin by CYP3A11 enzyme. The activities of CYP1A and CYP3A were determined as a rate of ethoxy- (EROD) and benzyloxy- (BROD) resorufin O-dealkylation, respectively. Incubation mixtures contained microsomal protein (0.2 mg), phosphate buffer (pH 7.4, 50 mM), and appropriate substrate (1 μM of 7-ethoxyresorufin or 2 μM of 7-benzyloxyresorufin). Reactions were initiated by the addition of 0.5 mM NADPH. The reaction mixture, in a final volume of 500 μL, was incubated in a water bath at 37°C for 5 min (EROD) or 7 min (BROD), and afterwards the reactions were terminated with ice-cold methanol (500 μL), followed by centrifugation at 7,500 ×g. Resorufin concentrations were measured as previously described. EROD and BROD activities were expressed as pmol of resorufin per milligram protein and minute.
(§3) EROD and BROD activities were initially evaluated in the presence of quercetin, naringenin, and sesamin at nine concentrations from 5 to 100000 nM. To examine the inhibition mode, the activities were determined in the presence of 2 or 3 inhibitor concentrations over the substrate concentration ranges 0.005 to 4.0 μM for EROD and 0.05 to 8 μM for BROD, respectively. The stock solutions of quercetin, naringenin, and sesamin were prepared in DMSO and added to incubations to yield final concentrations of 5, 10, 50, 100, 500, 1000, 2000, […], and 100000 nM. The final DMSO content in the incubations was 0.5%. The control incubations contained the same concentration of DMSO.
(§4) Comparison of enzymatic activities in the absence of the inhibitors between studied groups was performed on logarithmically transformed values using a mixed model with fixed effect of treatment (SAS version 9.3, SAS Institute Inc., Cary, NC, USA). The IC50 (concentration causing 50% reduction of control activity) and Ki values for inhibitors were calculated by nonlinear regression analysis using GraphPad prism version 4.0 for Windows (GraphPad, San Diego, CA, USA). Comparisons of IC50 and Ki values between the studied groups were performed on logarithmically transformed values using one-way analysis of variance, followed by the Tukey multiple-comparisons test. Differences were regarded as significant when P < 0.05.

CYP3A = target: T2, CYP3A (Mus musculus, UniProt Q64459); test: in vitro; settings: 2 or 3 inhibitor concentrations, substrate 0.05 to 8 μM
T2 sequence (Q64459 1-504): T1 sequence (Q64459 1-504)
Protocol: as §1, §2, §3, §4

CYP1A = test: In vitro inhibition of EROD (7-ethoxyresorufin O-dealkylase) activity in hepatic microsomes; settings: for Inhibition of EROD activity: all exposure groups, concentrations 5 to 100000 nM; for Ki at 5 min: CD-1, mouse, liver microsomes, pH 7.4, probe 7-ethoxyresorufin (0.005 to 4.0 µM)
Protocol: as §1, §2, §3, §4

[1] = test system: CYP1A (CYP1A1 and CYP1A2); test: as above; settings: CD-1, mouse, liver microsomes, pH 7.4, probe 7-ethoxyresorufin (1 µM), IC50, CYP1A (EROD), geometric mean (confidence interval), 1 μM 7-ethoxyresorufin
Protocol: as §1, §2, §3, §4

[2] = microsomes from high POPs-exposed mice, geometric mean (confidence interval)
[3] = microsomes from low POPs-exposed mice, geometric mean (confidence interval)
[4] = microsomes from unexposed mice, geometric mean (confidence interval)
[5] = pH 7.4, Ki values, BROD activity, range over the unexposed, low- and high-exposed groups
[6] = pH 7.4, Ki, CYP3A (BROD), microsomes from high POPs-exposed mice, geometric mean (confidence interval)
[7] = pH 7.4, Ki, CYP3A (BROD), microsomes from low POPs-exposed mice, geometric mean (confidence interval)
[8] = pH 7.4, Ki, CYP3A (BROD), microsomes from unexposed mice, geometric mean (confidence interval)

Work on `O=C1C[C@@H](c2ccc(O)cc2)Oc2cc(O)cc(O)c21` [Naringenin, naringenin] yielded an IC50 at 7 min (CYP3A (CYP3A11); [2]) of 43.1 µM, an IC50 at 7 min (CYP3A (CYP3A11); [3]) of 49.1 µM and an IC50 at 7 min (CYP3A (CYP3A11); [4]) of 40.3 µM. It also gave a Ki at 7 min (CYP3A (CYP3A11); [5]) of 39.3 to 45.8 µM, a Ki at 7 min (CYP3A (CYP3A11); [6]) of 39.3 µM and a Ki at 7 min (CYP3A (CYP3A11); [7]) of 45.8 µM. For the same compound, the Ki at 7 min (CYP3A (CYP3A11); [8]) was 42.1 µM, the “Mode of inhibition of BROD activity” value (CYP3A) was “noncompetitively inhibited” and the “Inhibition of EROD activity” value (CYP1A) was “No inhibition”. The “Inhibition of EROD activity” value (CYP1A; listed as naringenin) was “Neither naringenin nor sesamin inhibited”.
Work on `O=c1c(O)c(-c2ccc(O)c(O)c2)oc2cc(O)cc(O)c12` [Quercetin, quercetin] yielded an IC50 at 7 min (CYP3A (CYP3A11); [2]) of 35.7 µM, an IC50 at 7 min (CYP3A (CYP3A11); [3]) of 27.1 µM and an IC50 at 7 min (CYP3A (CYP3A11); [4]) of 30.2 µM. The Ki at 7 min (CYP3A (CYP3A11); [5]) was 64.9 to 75.3 µM, the Ki at 7 min (CYP3A (CYP3A11); [6]) was 75.3 µM and the Ki at 7 min (CYP3A (CYP3A11); [7]) was 64.9 µM. For the same compound, the Ki at 7 min (CYP3A (CYP3A11); [8]) was 67.1 µM, the “Mode of inhibition of BROD activity” value (CYP3A) was “noncompetitively inhibited” and the “Mode of inhibition of EROD activity” value (CYP1A; 2 or 3 inhibitor concentrations, substrate 0.005 to 4.0 μM) was “competitively inhibited”. The Ki at 5 min (CYP1A; Ki values, EROD activity, range over the unexposed, low- and high-exposed groups) was 1.7 to 2.6 µM, the Ki at 5 min (CYP1A; Ki, CYP1A (EROD), microsomes from high POPs-exposed mice, geometric mean (confidence interval)) was 2.6 µM and the Ki at 5 min (CYP1A; Ki, CYP1A (EROD), microsomes from low POPs-exposed mice, geometric mean (confidence interval)) was 2.6 µM. For the same compound, the Ki at 5 min (CYP1A; Ki, CYP1A (EROD), microsomes from unexposed mice, geometric mean (confidence interval)) was 1.7 µM, the “Inhibition of EROD activity” value (CYP1A) was “strongly inhibited” and the IC50 at 5 min ([1]; microsomes from high POPs-exposed mice) was 5.8 µM. For the same compound, the IC50 at 5 min ([1]; microsomes from low POPs-exposed mice) was 5.1 µM and the IC50 at 5 min ([1]; microsomes from unexposed mice) was 5.4 µM.
